Measured values: patent US20160009693A1, “HERBICIDAL COMPOUNDS” (SYNGENTA LIMITED, priority 2013, published 2016)

How the values were obtained:
Assay type in all cases: in vivo
Conditions in all cases: applied at 1000 g/h, evaluated after 13 days
[1] = test system: Alopecurus myosuroides (ALOMY); assay: Herbicidal glasshouse test, post-emergence, ALOMY
Setaria faberi (SETFA) [2] = assay: Herbicidal glasshouse test, post-emergence, SETFA
Method in brief: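 Setaria faberi seeds were sown in standard soil in pots and grown for 8 days in a glasshouse at 24/16° C. day/night, 14 hours light and 65% humidity. The seedlings were then sprayed post-emergence with the active ingredient in acetone/water (50:50) containing 0.5% Tween 20. Afterwards they were kept under the same conditions, watered twice daily, and scored for percentage damage on a five point scale.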

[3] = test system: Ipomoea hederacea (IPOHE); assay: Herbicidal glasshouse test, post-emergence, IPOHE
[4] = test system: Alopecurus myosuroides (ALOMY); assay: Herbicidal glasshouse test, pre-emergence, ALOMY
Setaria faberi (SETFA) [5] = assay: Herbicidal glasshouse test, pre-emergence, SETFA
[6] = test system: Ipomoea hederacea (IPOHE); assay: Herbicidal glasshouse test, pre-emergence, IPOHE
[7] = test system: Amaranthus retoflexus (AMARE); assay: Herbicidal glasshouse test, pre-emergence, AMARE
Method in brief: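 Amaranthus retoflexus seeds were sown in pots of standard soil and kept one day in a glasshouse at 24/16° C. (day/night), 14 hours light and 65% humidity. They were then sprayed pre-emergence with the active ingredient in acetone/water (50:50) containing 0.5% Tween 20. Plants grew under the same conditions, watered twice daily, and percentage damage was scored after 13 days.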

[8] = test system: Amaranthus retoflexus (AMARE); assay: Herbicidal glasshouse test, post-emergence, AMARE
Method in brief: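 Amaranthus retoflexus (AMARE) seeds were sown in pots of standard soil and grown in a glasshouse at 24/16° C. day/night, 14 hours light and 65% humidity for 8 days. The plants were then sprayed post-emergence with an aqueous solution of the active ingredient in acetone/water (50:50) with 0.5% Tween 20. Damage was scored after 13 days.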

[9] = test system: Echinochloa crus-galli (ECHCG); assay: Herbicidal glasshouse test, post-emergence, ECHCG
Method in brief: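 Echinochloa crus-galli (ECHCG) seeds were sown in standard soil in pots and grown for 8 days in a glasshouse at 24/16° C. day/night, 14 hours light and 65% humidity. The young plants were then sprayed post-emergence with the active ingredient in acetone / water (50:50) containing 0.5% Tween 20. Damage was scored after 13 days.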

Solanum nigrum (SOLNI) [10] = assay: Herbicidal glasshouse test, pre-emergence, SOLNI
Method in brief: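 Seeds of Solanum nigrum were sown in pots of standard soil and kept one day in a glasshouse at 24/16° C. day/night, 14 hours light and 65% humidity. For the pre-emergence treatment they were then sprayed with an aqueous solution of the active ingredient formulated in acetone/water (50:50) containing 0.5% Tween 20. Plant damage was rated after 13 days.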

Solanum nigrum (SOLNI) [11] = assay: Herbicidal glasshouse test, post-emergence, SOLNI
[12] = test system: Echinochloa crus-galli (ECHCG); assay: Herbicidal glasshouse test, pre-emergence, ECHCG
Method in brief: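 Echinochloa crus-galli seeds were sown in standard soil in pots and grown for one day in a glasshouse at 24/16° C. day/night, 14 hours light and 65% humidity. Pre-emergence spraying used an aqueous solution of the active ingredient in acetone/water (50:50) with 0.5% Tween 20. Damage was scored after 13 days on a five point scale.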

Row | SMILES | POST Application ALOMY, percentage damage (five point scale) [1] | POST Application SETFA, percentage damage (five point scale) (Setaria faberi (SETFA) [2]) | POST Application IPOHE, percentage damage (five point scale) [3] | PRE Application ALOMY, percentage damage (five point scale) [4] | PRE Application SETFA, percentage damage (five point scale) (Setaria faberi (SETFA) [5]) | PRE Application IPOHE, percentage damage (five point scale) [6] | PRE Application AMARE, percentage damage (five point scale) [7] | POST Application AMARE, percentage damage (five point scale) [8] | POST Application ECHCG, percentage damage (five point scale) [9] | PRE Application SOLNI, percentage damage (five point scale) (Solanum nigrum (SOLNI) [10]) | POST Application SOLNI, percentage damage (five point scale) (Solanum nigrum (SOLNI) [11]) | PRE Application ECHCG, percentage damage (five point scale) [12]
1 | Cn1nnnc1NC(=O)c1nn(C)c(=O)n(Cc2cccc(C(F)F)c2)c1=O [Compound 1.079] | 4 (4=60-79%) | 2 (2=20-39%) | 5 (5=80-100%) | 5 (5=80-100%) | 1 (1=0-19%) | 4 (4=60-79%) | 5 (5=80-100%) | 5 (5=80-100%) | 5 (5=80-100%) | 5 (5=80-100%) | 5 (5=80-100%) | 5 (5=80-100%)
2 | Cn1nnnc1NC(=O)c1nn(C)c(=O)n(Cc2ccc(SC(F)(F)F)cc2)c1=O [Compound 1.080] | 5 (5=80-100%) | 5 (5=80-100%) | 5 (5=80-100%) | 5 (5=80-100%) | 5 (5=80-100%) | 5 (5=80-100%) | 5 (5=80-100%) | 5 (5=80-100%) | 4 (4=60-79%) | 5 (5=80-100%) | 5 (5=80-100%) | 5 (5=80-100%)
3 | COc1ccc([N+](=O)[O-])cc1Cn1c(=O)c(C(=O)Nc2nnnn2C)nn(C)c1=O [Compound 1.081] | 5 (5=80-100%) | 4 (4=60-79%) | 5 (5=80-100%) | 5 (5=80-100%) | 2 (2=20-39%) | 5 (5=80-100%) | 5 (5=80-100%) | 5 (5=80-100%) | 4 (4=60-79%) | 5 (5=80-100%) | 5 (5=80-100%) | 5 (5=80-100%)
4 | Cn1nnnc1NC(=O)c1nn(C)c(=O)n(Cc2ccccc2Br)c1=O [Compound 1.082] | 5 (5=80-100%) | 2 (2=20-39%) | 5 (5=80-100%) | 5 (5=80-100%) | 3 (3=40-59%) | 5 (5=80-100%) | 5 (5=80-100%) | 5 (5=80-100%) | 5 (5=80-100%) | 5 (5=80-100%) | 5 (5=80-100%) | 5 (5=80-100%)
5 | Cn1nnnc1NC(=O)c1nn(C)c(=O)n(Cc2ccccc2C#N)c1=O [Compound 1.083] | 5 (5=80-100%) | 5 (5=80-100%) | 5 (5=80-100%) | 5 (5=80-100%) | 5 (5=80-100%) | 5 (5=80-100%) | 5 (5=80-100%) | 5 (5=80-100%) | 5 (5=80-100%) | 5 (5=80-100%) | 5 (5=80-100%) | 5 (5=80-100%)
6 | Cn1nnnc1NC(=O)c1nn(C)c(=O)n(Cc2cccc(Cl)c2)c1=O [Compound 1.084] | 5 (5=80-100%) | 2 (2=20-39%) | 5 (5=80-100%) | 5 (5=80-100%) | 2 (2=20-39%) | 5 (5=80-100%) | 5 (5=80-100%) | 5 (5=80-100%) | 5 (5=80-100%) | 5 (5=80-100%) | 5 (5=80-100%) | 5 (5=80-100%)
7 | Cn1nnnc1NC(=O)c1nn(C)c(=O)n(Cc2cc(Cl)nc(Cl)c2)c1=O [Compound 1.085] | 5 (5=80-100%) | 2 (2=20-39%) | 5 (5=80-100%) | 5 (5=80-100%) | 2 (2=20-39%) | 5 (5=80-100%) | 5 (5=80-100%) | 5 (5=80-100%) | 5 (5=80-100%) | 5 (5=80-100%) | 5 (5=80-100%) | 5 (5=80-100%)
8 | Cn1nnnc1NC(=O)c1nn(C)c(=O)n(Cc2ccc(C(F)F)cc2)c1=O [Compound 1.086] | 5 (5=80-100%) | 2 (2=20-39%) | 5 (5=80-100%) | 5 (5=80-100%) | 2 (2=20-39%) | 5 (5=80-100%) | 5 (5=80-100%) | 5 (5=80-100%) | 5 (5=80-100%) | 5 (5=80-100%) | 5 (5=80-100%) | 5 (5=80-100%)
9 | CC(C)CCn1c(=O)c(C(=O)Nc2nnnn2C)nn(C)c1=O [Compound 1.087] | 5 (5=80-100%) | 5 (5=80-100%) | 5 (5=80-100%) | 5 (5=80-100%) | 5 (5=80-100%) | 5 (5=80-100%) | 5 (5=80-100%) | 5 (5=80-100%) | 5 (5=80-100%) | 5 (5=80-100%) | 5 (5=80-100%) | 5 (5=80-100%)
10 | COCCn1c(=O)c(C(=O)Nc2nnnn2C)nn(C)c1=O [Compound 1.088] | 5 (5=80-100%) | 5 (5=80-100%) | 5 (5=80-100%) | 5 (5=80-100%) | 5 (5=80-100%) | 5 (5=80-100%) | 5 (5=80-100%) | 5 (5=80-100%) | 5 (5=80-100%) | 5 (5=80-100%) | 5 (5=80-100%) | 5 (5=80-100%)
